The supplement of paper PMC11061612

Experiments:
Assay in all cases: Bliss excess, mean over the matrix (fraction); higher = more synergy
[1] = system: B-CPAP (Thyroid Gland Carcinoma)
In short: (§1)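 Cell lines grown in DMEM/F12 or RPMI with 10% FBS were plated in 1536-well plates and held 24 hours at 37°C, 5% CO2 before 72 hours of exposure to two-drug dose matrices, with DMSO typically at 0.2%. CellTiter-Glo 2.0 luminescence gave viability, which was converted to inhibition. Vehicle wells were set to 0 and blank wells to 1. Combination Emax is the second-highest inhibition in the matrix, and Bliss excess is the observed combination effect minus the expected EA + EB − EA·EB, where EA and EB are the single-agent effects.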

[2] = system: Daoy (Other Solid Carcinomas)
In short: as §1

[3] = system: KP-1N (Pancreatic Carcinoma)
In short: as §1

[4] = system: CCRF-CEM (T-Lymphoblastic Leukemia)
In short: as §1

[5] = system: CaR-1 (Colorectal Carcinoma)
In short: as §1

[6] = system: HCC-78 (Lung Adenocarcinoma)
In short: as §1

HOS (Osteosarcoma) = system: HOS (Osteosarcoma)
In short: as §1

[7] = system: SNU-5 (Gastric Carcinoma)
In short: as §1

[8] = system: Ramos-2G6-4C10 (Burkitt's Lymphoma)
In short: as §1

[9] = system: TCCSUP (Bladder Carcinoma)
In short: as §1

[10] = system: EC-GI-10 (Esophageal Squamous Cell Carcinoma)
In short: as §1

[11] = system: LNCaP-Clone-FGC (Prostate Carcinoma)
In short: as §1

[12] = system: MFE-296 (Endometrial Carcinoma)
In short: as §1

[13] = system: HT-1376 (Bladder Carcinoma)
In short: as §1

[14] = system: TE-9 (Esophageal Squamous Cell Carcinoma)
In short: as §1

[15] = system: KYSE-520 (Esophageal Squamous Cell Carcinoma)
In short: as §1

[16] = system: COLO-205 (Colorectal Carcinoma)
In short: as §1

AGS (Gastric Carcinoma) = system: AGS (Gastric Carcinoma)
In short: as §1

[17] = system: HO-1-N-1 (Oral Cavity Carcinoma)
In short: as §1

[18] = system: Calu-3 (Lung Adenocarcinoma)
In short: as §1

| Structure (SMILES) | Bliss excess [1] | Bliss excess [2] | Bliss excess [3] | Bliss excess [4] | Bliss excess [5] | Bliss excess [6] | Bliss excess (HOS (Osteosarcoma)) | Bliss excess [7] | Bliss excess [8] | Bliss excess [9] | Bliss excess [10] | Bliss excess [11] | Bliss excess [12] | Bliss excess [13] | Bliss excess [14] | Bliss excess [15] | Bliss excess [16] | Bliss excess (AGS (Gastric Carcinoma)) | Bliss excess [17] | Bliss excess [18] |
| --- | --- | --- | --- | --- | --- | --- | --- | --- | --- | --- | --- | --- | --- | --- | --- | --- | --- | --- | --- | --- |
| CN(C)CCCOc1ccc(-c2ccc3ncc4c(c3c2)n(C2CCOCC2)c(=O)n4C)cn1 [AZD0156] + C=CCn1c(=O)c2cnc(Nc3ccc(N4CCN(C)CC4)cc3)nc2n1-c1cccc(C(C)(C)O)n1 [AZD1775] (first compound max 1 µM, partner max 1 µM) | -0.0255 | -0.0151 | -0.0207 | 0.0192 | -0.0445 | 0.0011 | -0.0196 | -0.0705 | 0.0365 | -0.0651 | -0.0001 | -0.045 | -0.0553 | -0.134 | -0.0422 | -0.0232 | -0.0229 | -0.0517 | -0.012 | -0.0378 |
| CN(C)CCCOc1ccc(-c2ccc3ncc4c(c3c2)n(C2CCOCC2)c(=O)n4C)cn1 [AZD0156] + CCN(CCO)CCCOc1ccc2c(Nc3cc(CC(=O)Nc4cccc(F)c4)[nH]n3)ncnc2c1 [AZD2811] (first compound max 1 µM, 7x7, partner max 1 µM) | -0.0224 | 0.0069 | 0.0312 | 0.0045 | -0.0097 | -0.0058 | -0.0186 | 0.0036 | 0.0919 | -0.0589 | 0.0507 | -0.0257 | -0.0356 | -0.0665 | -0.0214 | 0.005 | 0.0035 | -0.0047 | 0.0056 | -0.0295 |
| CN(C)CCCOc1ccc(-c2ccc3ncc4c(c3c2)n(C2CCOCC2)c(=O)n4C)cn1 [AZD0156] + C[C@@H]1COCCN1C2=NC(=NC(=C2)C3(CC3)[S@](=N)(=O)C)C4=C5C=CNC5=NC=C4 [AZD6738] (first compound max 1 µM, 7x7, partner max 10 µM) | 0.027 | 0.0287 | 0.0261 | 0.0002 | -0.0449 | -0.0031 | 0.024 | -0.0347 | 0.0933 | -0.0255 | 0.0263 | -0.056 | -0.0485 | -0.0193 | -0.0034 | -0.0172 | -0.0057 | 0.0232 | -0.0101 | -0.0205 |
| CN(C)CCCOc1ccc(-c2ccc3ncc4c(c3c2)n(C2CCOCC2)c(=O)n4C)cn1 [AZD0156] + O=C(c1cc(Cc2n[nH]c(=O)c3ccccc23)ccc1F)N1CCN(C(=O)C2CC2)CC1 [Olaparib] (first compound max 3 µM, partner max 3 µM) | 0.0785 | 0.0714 | -0.0043 | 0.158 | -0.0014 | 0.109 | 0.046 | 0.015 | 0.0928 | 0.0405 | 0.0772 | 0.0755 | -0.0153 | -0.0417 | 0.109 | -0.0172 | 0.125 | 0.0736 | 0.0618 | -0.0153 |
| C=CCn1c(=O)c2cnc(Nc3ccc(N4CCN(C)CC4)cc3)nc2n1-c1cccc(C(C)(C)O)n1 [AZD1775] + C1CN(CCC1(C(=O)N[C@@H](CCO)C2=CC=C(C=C2)Cl)N)C3=NC=NC4=C3C=CN4 [Capivasertib] (first compound max 3 µM, partner max 3 µM) | 0.0065 | -0.0474 | -0.0101 | 0.0122 | 0.0453 | -0.0672 | -0.0141 | -0.0655 | 0.0099 | 0.0046 | 0.0203 | -0.0492 | -0.0091 | 0.0513 | -0.002 | -0.0129 | 0.102 | 0.0159 | 0.0595 | -0.0761 |
| C=CCn1c(=O)c2cnc(Nc3ccc(N4CCN(C)CC4)cc3)nc2n1-c1cccc(C(C)(C)O)n1 [AZD1775] + C[C@@H]1COCCN1C2=NC(=NC(=C2)C3(CC3)[S@](=N)(=O)C)C4=C5C=CNC5=NC=C4 [AZD6738] (first compound max 1 µM, partner max 10 µM) | 0.0499 | 0.0863 | 0.0055 | 0.0391 | 0.0177 | 0.0101 | 0.106 |  | 0.0915 | 0.0305 | 0.0535 | -0.0387 | 0.0428 | -0.0483 | 0.0638 | -0.003 | 0.141 | 0.113 | 0.0456 | -0.0181 |
| C=CCn1c(=O)c2cnc(Nc3ccc(N4CCN(C)CC4)cc3)nc2n1-c1cccc(C(C)(C)O)n1 [AZD1775] + O=C(c1cc(Cc2n[nH]c(=O)c3ccccc23)ccc1F)N1CCN(C(=O)C2CC2)CC1 [Olaparib] (first compound max 1 µM, partner max 10 µM) | 0.0393 | 0.044 | -0.0239 | -0.0381 | -0.0077 | -0.029 | -0.0389 | -0.0833 | -0.0238 | 0.0107 | -0.0245 | -0.0242 | -0.0218 | -0.0509 | -0.0271 | -0.0301 | -0.0149 | 0.0116 | 0.0217 | -0.0243 |
| CCN(CCO)CCCOc1ccc2c(Nc3cc(CC(=O)Nc4cccc(F)c4)[nH]n3)ncnc2c1 [AZD2811] + C=CCn1c(=O)c2cnc(Nc3ccc(N4CCN(C)CC4)cc3)nc2n1-c1cccc(C(C)(C)O)n1 [AZD1775] (first compound max 1 µM, partner max 1 µM) | -0.0363 | 0.026 | 0.0124 | 0.006 | -0.0165 | 0.0092 | 0.0066 | -0.0294 | 0.0096 | -0.0204 | 0.0411 | 0.0001 | -0.0245 | -0.0947 | -0.0285 | -0.0048 | 0.008 | 0.0156 | -0.0785 | -0.0306 |
| CCN(CCO)CCCOc1ccc2c(Nc3cc(CC(=O)Nc4cccc(F)c4)[nH]n3)ncnc2c1 [AZD2811] + C[C@@H]1COCCN1C2=NC(=NC(=C2)C3(CC3)[S@](=N)(=O)C)C4=C5C=CNC5=NC=C4 [AZD6738] (first compound max 1 µM, 7x7, partner max 10 µM) | -0.0276 | -0.0153 | -0.0189 | -0.0295 | -0.0528 | 0.0099 | -0.0432 | -0.0209 | -0.0008 | 0.0006 | 0.0182 | -0.0447 | -0.0728 | -0.0566 | -0.009 | -0.0323 | -0.0872 | -0.0191 | -0.053 | -0.0169 |
| CCN(CCO)CCCOc1ccc2c(Nc3cc(CC(=O)Nc4cccc(F)c4)[nH]n3)ncnc2c1 [AZD2811] + O=C(c1cc(Cc2n[nH]c(=O)c3ccccc23)ccc1F)N1CCN(C(=O)C2CC2)CC1 [Olaparib] (first compound max 1 µM, 7x7, partner max 10 µM) | 0.0104 | 0.0678 | -0.0175 | -0.0134 | 0.0213 | 0.0013 | -0.0188 | -0.0237 | 0.0573 | 0.0238 | 0.0377 | -0.0009 | -0.011 | -0.0499 | -0.0111 | -0.0217 | 0.0075 | 0.0484 | -0.0329 | 0.0047 |
| CN(CCO)CC[C@H](CSc1ccccc1)Nc1ccc(S(=O)(=O)NC(=O)c2ccc(N3CCC([C@@H](O)c4ccccc4-c4ccc(Cl)cc4)CC3)cc2)cc1S(=O)(=O)C(F)(F)F [AZD4320] + C1CN(CCC1(C(=O)N[C@@H](CCO)C2=CC=C(C=C2)Cl)N)C3=NC=NC4=C3C=CN4 [Capivasertib] (first compound max 1 µM, 7x7, partner max 3 µM) | -0.0377 | 0.0185 | -0.0389 | 0.0753 | -0.0668 | -0.034 | -0.0467 | -0.0453 | 0.038 | -0.0568 | 0.0003 | -0.0239 | -0.0255 | -0.0959 | 0.0169 | -0.0696 | -0.0031 | -0.0081 | -0.0187 | -0.0149 |
| COc1nnc2ccc(N3CCC(c4ccc(OCCN5CCN(C)C(=O)[C@H]5C)cc4)CC3)nn12 [AZD5153] + CN(CC[C@H](CSC1=CC=CC=C1)NC2=C(C=C(C=C2)S(=O)(=O)NC(=O)C3=CC=C(C=C3)N4CCC(CC4)[C@H](C5=CC=CC=C5C6=CC=C(C=C6)Cl)O)S(=O)(=O)C(F)(F)F)CCO [AZD4320] (first compound max 1 µM, 7x7, partner max 1 µM) | 0.0375 | 0.113 | -0.0004 |  |  |  |  | 0.0566 |  | 0.0033 | -0.0052 | 0.0557 | 0.0104 |  |  | 0.023 | 0.0335 | -0.03 |  |  |
| CC(=O)c1c(C)c2cnc(Nc3ccc(N4CCNCC4)cn3)nc2n(C2CCCC2)c1=O [Palbociclib] + CN(CC[C@H](CSC1=CC=CC=C1)NC2=C(C=C(C=C2)S(=O)(=O)NC(=O)C3=CC=C(C=C3)N4CCC(CC4)[C@H](C5=CC=CC=C5C6=CC=C(C=C6)Cl)O)S(=O)(=O)C(F)(F)F)CCO [AZD4320] (first compound max 10 µM, 7x7, partner max 1 µM) | -0.0241 | 0.0118 | -0.0305 |  |  |  |  | -0.0446 |  | -0.0607 | -0.0715 | -0.0902 | -0.0227 |  |  | -0.0557 | -0.0497 | -0.008 |  |  |
| CCc1c2c(nc3ccc(O)cc13)-c1cc3c(c(=O)n1C2)COC(=O)[C@]3(O)CC [SN-38] + O=C(c1cc(Cc2n[nH]c(=O)c3ccccc23)ccc1F)N1CCN(C(=O)C2CC2)CC1 [Olaparib] (first compound max 0.3 µM, 7x7, partner max 10 µM) | 0.0148 | 0.119 | 0.0647 | 0.0463 | 0.0221 | 0.0106 | 0.0819 |  | 0.0338 | 0.0883 |  |  | 0.0741 | -0.0464 | 0.0419 |  | 0.0491 | 0.0897 | 0.06 | 0.0909 |
| C[C@@H](c1ccc2nccn2c1)n1nnc2ncc(-c3cnn(C)c3)nc21 [Savolitinib] + CN(CC[C@H](CSC1=CC=CC=C1)NC2=C(C=C(C=C2)S(=O)(=O)NC(=O)C3=CC=C(C=C3)N4CCC(CC4)[C@H](C5=CC=CC=C5C6=CC=C(C=C6)Cl)O)S(=O)(=O)C(F)(F)F)CCO [AZD4320] (first compound max 1 µM, 7x7, partner max 1 µM) | 0.0041 | -0.0547 | -0.0755 |  |  |  |  | 0.029 |  | -0.0469 | 0.0005 | -0.0205 | -0.0181 |  |  | -0.0298 | -0.043 | -0.0353 |  |  |
